According to patent US20230338337A1, “BIOMARKERS FOR CANCER THERAPY USING MDM2 ANTAGONISTS” (OTSUKA PHARMACEUTICAL CO., LTD., priority 2019, published 2023):

Experiments:
[1] = tested on: SJSA-1 (p53 wild-type, MDM2 amplified osteosarcoma); experiment: Protocol A: SRB growth inhibition assay; conditions: read-out: SJSA-1 IC50 (μM) (Protocol A)
[2] = target: MDM2-p53 interaction (in vitro translated MDM2) (Homo sapiens (Human), UniProt Q00987); experiment: MDM2-p53 interaction 96-well plate binding assay (ELISA); conditions: for MDM2 % inhibition at 0.0010: at 0.0010 μM; for MDM2 % inhibition at 0.030: at 0.030 μM
MDM2-p53 interaction (in vitro translated MDM2), sequence (Q00987 whole entry): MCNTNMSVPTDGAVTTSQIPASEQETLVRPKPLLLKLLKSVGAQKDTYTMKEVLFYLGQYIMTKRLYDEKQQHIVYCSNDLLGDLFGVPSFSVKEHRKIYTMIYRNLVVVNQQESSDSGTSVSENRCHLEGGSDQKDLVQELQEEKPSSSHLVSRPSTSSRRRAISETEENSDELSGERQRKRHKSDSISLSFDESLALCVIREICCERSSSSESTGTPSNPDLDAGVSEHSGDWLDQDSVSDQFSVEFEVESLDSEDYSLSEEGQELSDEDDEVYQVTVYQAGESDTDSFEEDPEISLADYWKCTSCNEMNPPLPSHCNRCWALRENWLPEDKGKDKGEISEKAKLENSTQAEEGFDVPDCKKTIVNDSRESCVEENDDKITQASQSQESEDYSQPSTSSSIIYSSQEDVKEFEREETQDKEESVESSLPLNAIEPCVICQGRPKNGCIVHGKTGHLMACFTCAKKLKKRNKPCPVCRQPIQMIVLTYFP

SJSA-1 = experiment: Protocol B: CellTiter-Glo cell viability assay; conditions: read-out: SJSA1 IC50 (μM) (Protocol B); Protocol B

Row | IC50 [1] [µM] | MDM2 % inhibition at 0.0010 [2] [%@0.0010] | IC50 (SJSA-1) [µM] | Substance | also measured
1 | 0.039 | 71 |  | 2-{[(1R)-1-(4-chlorophenyl)-7-fluoro-5-{1-hydroxy-1-[trans-4-hydroxycyclohexyl]propyl}-1-methoxy-3-oxo-2,3-dihydro-1H-isoindol-2-yl]methyl}pyrimidine-5-carbonitrile [Example 504] | 
2 | 0.21 | 74 | 0.07 | (3R)-3-(4-chlorophenyl)-2-[(5-chloropyrimidin-2-yl)methyl]-4-fluoro-6-[1-hydroxy-1-(1-methylpiperidin-4-yl)ethyl]-3-{[1-(hydroxymethyl)cyclopropyl]methoxy}-2,3-dihydro-1H-isoindol-1-one [Example 554] | 
3 | 0.11 |  |  | (3R)-3-(4-chlorophenyl)-2-[(5-chloropyridin-2-yl)methyl]-4-fluoro-6-{1-hydroxy-1-[1-(2-hydroxyacetyl)piperidin-4-yl]ethyl}-3-methoxy-2,3-dihydro-1H-isoindol-1-one [Example 296] | MDM2 % at concentration [2]: 62%@0.0010
4 | 0.031 | 70 |  | (3R)-3-(4-chlorophenyl)-2-[(5-chloropyrimidin-2-yl)methyl]-4-fluoro-6-[(1S)-1-hydroxy-1-[1-(oxetan-3-yl)piperidin-4-yl]propyl]-3-methoxy-2,3-dihydro-1H-isoindol-1-one [Example 551] | 
5 | 0.028 | 71 |  | (3R)-3-(4-chlorophenyl)-2-[(5-chloropyrimidin-2-yl)methyl]-4-fluoro-6-[1-hydroxy-1-(1-methyl-1H-imidazol-4-yl)propyl]-3-[(3S)-oxolan-3-yloxy]-2,3-dihydro-1H-isoindol-1-one [Example 475] | 
6 | 0.032 | 86 |  | (3R)-3-(4-chlorophenyl)-2-[(5-chloropyrimidin-2-yl)methyl]-4-fluoro-6-[1-(4-fluoropiperidin-4-yl)-1-hydroxypropyl]-3-methoxy-2,3-dihydro-1H-isoindol-1-one [Example 544] | 
7 | 0.25 | 81 |  | 2-{[(1R)-1-(4-chlorophenyl)-7-fluoro-5-[(1S)-1-hydroxy-1-(1-methylpiperidin-4-yl)propyl]-3-oxo-1-[(3S)-oxolan-3-yloxy]-2,3-dihydro-1H-isoindol-2-yl]methyl}pyrimidine-5-carbonitrile [Example 557] | 
8 | 0.073 | 80 | 0.047 | 2-{[(1R)-1-(4-chlorophenyl)-1-[(1-cyanocyclopropyl)methoxy]-7-fluoro-5-[1-hydroxy-1-(1-methyl-1H-imidazol-4-yl)propyl]-3-oxo-2,3-dihydro-1H-isoindol-2-yl]methyl}pyrimidine-5-carbonitrile [Example 462] | 
9 | 0.19 |  |  | (3R)-3-(4-chlorophenyl)-2-[(5-chloropyrimidin-2-yl)methyl]-4-fluoro-6-[1-(4-fluoropiperidin-4-yl)-1-hydroxypropyl]-3-[(3S)-oxolan-3-yloxy]-2,3-dihydro-1H-isoindol-1-one [Example 541] | MDM2 % inhibition at 0.00030 ([2]; at 0.00030 μM): 64%@0.0003
10 | 0.075 | 59 | 0.051 | 1-({[(1R)-1-(4-chlorophenyl)-2-[(5-chloropyrimidin-2-yl)methyl]-7-fluoro-5-[1-hydroxy-1-(1-methyl-1H-imidazol-4-yl)propyl]-3-oxo-2,3-dihydro-1H-isoindol-1-yl]oxy}methyl)cyclopropane-1-carboxamide [Example 486] | 
11 | 0.11 | 59 |  | 6-{[(1R)-1-(4-chlorophenyl)-7-fluoro-5-[1-hydroxy-1-(1-methyl-1H-imidazol-4-yl)propyl]-1-(2-methoxyethoxy)-3-oxo-2,3-dihydro-1H-isoindol-2-yl]methyl}pyridine-3-carbonitrile [Example 430] | 
12 | 0.028 | 79 | 0.02 | (3R)-3-(4-chlorophenyl)-2-[(5-chloropyrimidin-2-yl)methyl]-4-fluoro-6-[1-[4-fluoro-1-(oxetan-3-yl)piperidin-4-yl]-1-hydroxypropyl]-3-methoxy-2,3-dihydro-1H-isoindol-1-one [Example 552] | 
13 | 0.021 | 47 | 0.065 | 2-{[(1R)-1-(4-chlorophenyl)-7-fluoro-5-[1-(4-fluoro-1-methylpiperidin-4-yl)-1-hydroxypropyl]-3-oxo-1-[(3S)-oxolan-3-yloxy]-2,3-dihydro-1H-isoindol-2-yl]methyl}pyrimidine-5-carbonitrile [Example 561] | 
14 | 0.045 | 65 |  | (3R)-3-(4-chlorophenyl)-2-[(5-chloropyrimidin-2-yl)methyl]-4-fluoro-6-[1-(4-fluoro-1-methylpiperidin-4-yl)-1-hydroxypropyl]-3-(2-hydroxyethoxy)-2,3-dihydro-1H-isoindol-1-one [Example 565] | 
15 | 1.7 |  | 3.4 | (3R)-3-(4-chlorophenyl)-2-[(4-chlorophenyl)methyl]-4-fluoro-3-{[1-(hydroxymethyl)cyclopropyl]methoxy}-6-(2-hydroxypropan-2-yl)-2,3-dihydro-1H-isoindol-1-one [Example 2] | 
16 | 0.2 |  |  | 1-({[(1R)-1-(4-chlorophenyl)-2-[(4-chlorophenyl)methyl]-5-(2-hydroxypropan-2-yl)-3-oxo-2,3-dihydro-1H-isoindol-1-yl]oxy}methyl)cyclopropane-1-carboxylic acid [Example 5] | IC50 ([2]; read-out: MDM2 IC50): 3.8 nM
17 | 0.11 | 65 |  | 6-{[(1R)-1-(4-chlorophenyl)-7-fluoro-3-oxo-1-[(3S)-oxolan-3-yloxy]-5-[2,2,2-trifluoro-1-hydroxy-1-(1-methyl-1H-pyrazol-4-yl)ethyl]-2,3-dihydro-1H-isoindol-2-yl]methyl}pyridine-3-carbonitrile [Example 428] | 
18 | 0.021 | 45 |  | 2-{[(1R)-1-(4-chlorophenyl)-1-[(1-cyanocyclopropyl)methoxy]-7-fluoro-5-[1-(4-fluoro-1-methylpiperidin-4-yl)-1-hydroxypropyl]-3-oxo-2,3-dihydro-1H-isoindol-2-yl]methyl}pyrimidine-5-carbonitrile [Example 574] | 
19 |  |  | 1.8 | (3R)-3-(4-chlorophenyl)-2-[(5-chloropyrimidin-2-yl)methyl]-4-fluoro-6-[1-(4-fluoropiperidin-4-yl)-1-hydroxypropyl]-3-[(3S)-oxolan-3-yloxy]-2,3-dihydro-1H-isoindol-1-one [Example 540] | MDM2 % inhibition at 0.030 [2]: 33%@0.030
20 |  | 55 | 0.079 | (3R)-3-(4-chlorophenyl)-2-[(5-chloropyridin-2-yl)methyl]-4-fluoro-6-[1-hydroxy-1-(1-methylpiperidin-4-yl)ethyl]-3-{[1-(hydroxymethyl)cyclopropyl]methoxy}-2,3-dihydro-1H-isoindol-1-one [Example 555] | 
21 | 0.11 | 48 |  | 5-{[(1R)-1-(4-chlorophenyl)-7-fluoro-5-[1-hydroxy-1-(1-methyl-1H-imidazol-4-yl)propyl]-3-oxo-1-[(3S)-oxolan-3-yloxy]-2,3-dihydro-1H-isoindol-2-yl]methyl}pyridine-2-carbonitrile [Example 431] | 
22 | 0.019 | 82 |  | (3R)-3-(4-chlorophenyl)-2-[(5-chloropyrimidin-2-yl)methyl]-4-fluoro-6-{1-hydroxy-1-[trans-4-hydroxycyclohexyl]propyl}-3-(2-hydroxyethoxy)-2,3-dihydro-1H-isoindol-1-one [Example 517] | 
23 | 0.07 |  |  | 1-({[(1R)-5-[1-(1-acetylpiperidin-4-yl)-1-hydroxyethyl]-1-(4-chlorophenyl)-2-[(5-chloropyridin-2-yl)methyl]-7-fluoro-3-oxo-2,3-dihydro-1H-isoindol-1-yl]oxy}methyl)cyclopropane-1-carbonitrile [Example 301] | MDM2 % at concentration [2]: 75%@0.0010
24 | 0.035 | 77 |  | 6-{[(1R)-1-(4-chlorophenyl)-7-fluoro-5-{1-hydroxy-1-[trans-4-hydroxycyclohexyl]propyl}-1-methoxy-3-oxo-2,3-dihydro-1H-isoindol-2-yl]methyl}pyridine-3-carbonitrile [Example 521] | 
25 | 0.039 | 83 |  | 6-{[(1R)-1-(4-chlorophenyl)-7-fluoro-5-[1-(4-fluorooxan-4-yl)-1-hydroxypropyl]-1-[(2R)-2-hydroxypropoxy]-3-oxo-2,3-dihydro-1H-isoindol-2-yl]methyl}pyridine-3-carbonitrile [Example 497] | 
26 | 0.64 |  |  | (2S)-3-{[(1R)-1-(4-Chlorophenyl)-2-[(5-chloropyridin-2-yl)methyl]-7-fluoro-5-(2-hydroxypropan-2-yl)-3-oxo-2,3-dihydro-1H-isoindol-1-yl]oxy}-2-methylpropanamide [Example 167] | 

Row | Substance | IC50 [1] [µM] | MDM2 % inhibition at 0.0010 [2] [%@0.0010] | IC50 (SJSA-1) [µM] | also measured
27 | (3R)-2-[(5-chloro-3-hydroxypyridin-2-yl)methyl]-3-(4-chlorophenyl)-4-fluoro-6-[1-hydroxy-1-(1-methyl-1H-imidazol-4-yl)propyl]-3-[cis-3-hydroxycyclobutoxy]-2,3-dihydro-1H-isoindol-1-one [Example 487] | 0.12 | 59 |  | 
28 | 6-{[(1R)-1-(4-chlorophenyl)-7-fluoro-5-{1-hydroxy-1-[trans-4-hydroxycyclohexyl]propyl}-3-oxo-1-[cis-3-hydroxycyclobutoxy]-2,3-dihydro-1H-isoindol-2-yl]methyl}pyridine-3-carbonitrile [Example 520] |  |  | 3.9 | MDM2 % inhibition at 0.030 [2]: 32%@0.030
